Assay results from publication PMC11207040, “Synthesis and Biological Studies of New Temporin A Analogs Containing Unnatural Amino Acids in Position 7” (Pharmaceutics, 2024).
≈ marks a conversion by molar mass, not a printed value. Like-named read-outs stand apart in the source and are kept apart here. Non-standard residues stand in square brackets, D forms with d. Residues, ends and D or L forms follow the SMILES beside them. Orn = NCCC[C@H](N)C(=O)O

Legend:
[1] = test system: BALB 3T3 clone A31 cells; experiment: 3T3 NRU cytotoxicity/phototoxicity test; format: cell-based, mouse
Procedure: (§1) The cell lines BALB 3T3 (mouse embryonic fibroblasts) and MCF-12F (human breast epithelial cells) were used as models for healthy tissue. The MCF-7 and MDA-MB-231 cell lines were used as in vitro models for luminal A- and basal B-type breast cancer, respectively. Cell lines were obtained from the American Type Cultures Collection (ATCC, Manassas, VA, USA). Cells were cultured in Dulbecco modified Eagle’s medium (DMEM) supplemented with 10% fetal bovine serum (FBS), 100 U/mL penicillin, and 0.1 mg/mL streptomycin (Sigma-Aldrich, Schnelldorf, Germany) in an incubator at 37 °C, 5% CO2 and 95% humidity. Plastic flasks 75 cm^2 (Biologix, Lenexa, KS, USA) were used to grow the cells.
(§2) The cytotoxicity/phototoxicity testing was performed as described by the OECD Guidelines for the Testing of Chemicals, Section 4, Test No. 432: In Vitro 3T3 NRU Phototoxicity Test. BALB 3T3, clone A31 cells were grown in 75 cm^2 tissue culture flasks in DMEM high-glucose (4.5 g/L), 10% FBS, and antibiotics at 37.5 °C, in a humidified atmosphere under 5% CO2. Cells were plated at 1 × 10^4 cells / 100 μL culture medium in each well of 96-well microplates and allowed to adhere for 24 h before treatment with test compounds. Peptides were dissolved in DMSO and diluted with culture medium to working concentrations from 4 to 1000 μM. In phototoxicity tests, 96-well plates were irradiated (+Irr) with a dose of 2.4 J/cm^2 using an artificial solar light simulator Helios-iO (SERIC Ltd., Tokyo, Japan), and the cells were incubated for an additional 24 h. After treatment with a Neutral Red medium, washing, and application of the NR Desorb solution, the absorption was measured on a microplate reader at a wavelength of 540 nm. Cytotoxicity/phototoxicity was expressed as CC50 values (concentrations required for 50% cytotoxicity).

[2] = 3T3 NRU cytotoxicity/phototoxicity test; format: cell-based, mouse; conditions: mouse
Procedure: as §1, §2

[3] = test system: MDA-MB-231 cells; experiment: MTT antiproliferative assay, MDA-MB-231; format: cell-based, human; conditions: for IC50: MTT, 72 h, read-out: Mean IC50 ± SD, MDA-MB-231; for SI (Selectivity Index), MDA-MB-231: SI = IC50 MCF-12F/IC50 tumor cells
Procedure: as §1
(§3) The antiproliferative activity testing was performed on cell cultures using the MTT-dye reduction assay. This assay is based on the metabolism of MTT to insoluble formazan by mitochondrial reductases. The formazan concentration can be determined spectrophotometrically. The measured absorption is an indicator of cell viability. Cell lines (MCF-12F, MCF-7 and MDA-MB-231) were used in the experiments. Cells were plated at a density of 1 × 10^3 cells/100 µL in each well of 96-well microplates and allowed to adhere for 24 h before treatment with test compounds. A concentration range from 4 to 1000 μM was applied for 72 h. The formazan absorption was registered using a microplate reader at λ = 540 nm. Antiproliferative activities were expressed as IC50 values (concentrations required for 50% inhibition of cell growth).

[4] = test system: MCF-7 cells; experiment: MTT antiproliferative assay, MCF-7; format: cell-based, human; conditions: for IC50: MTT, 72 h, read-out: Mean IC50 ± SD, MCF-7; for SI (Selectivity Index), MCF-7: SI = IC50 MCF-12F/IC50 tumor cells
Procedure: as §1, §3

[5] = test system: MCF-12F cells; experiment: MTT antiproliferative assay, MCF-12F; format: cell-based, human; conditions: 72 h, non-tumorigenic cell line, read-out: Mean IC50 ± SD, MCF-12F
Procedure: as §1, §3

[6] = test system: Arthrobacter oxydans NBIMCC 9333; format: cell-based; conditions: 24 h
Procedure: (§4) The parent peptide Temporin A and the novel analogs were subjected to tests against model strains Escherichia coli NBIMCC 8785, Bacillus subtilis NBIMCC 3562, Arthrobacter oxydans NBIMCC 9333, Pseudomonas aeruginosa NBIMCC 3700, and Candida albicans NBIMCC 74, for the assessment of their antimicrobial activity. The strains were acquired from the National Bank for Industrial Microorganisms and Cell Cultures (NBIMCC, Bulgaria). The strain E. coli 8785 was cultured in Luria-Bertani broth (LB, HiMedia, Mumbai, India); B. subtilis 3562—in nutrient broth (NB, HiMedia, Mumbai, India); A. oxydans 9333; P. aeruginosa 3700—in meat peptone agar (MPA) medium; and C. albicans 74—in yeast mold (YM) medium. An incubator shaker ES-20/60 (Biosan, Latvia) was used for the cultivation and was set to 30 °C for B. subtilis 3562, A. oxydans 9333, and C. albicans 74; and 37 °C for E. coli 8785 and P. aeruginosa 3700, with a 24 h shaking period at 120 rpm. The microbial cultures were then adjusted to a turbidity of 0.5 McFarland using a Grant-bio DEN-1B densitometer (Grant Instruments, Royston, UK) for further use.
(§5) The minimal inhibitory concentration (MIC) of the peptides was determined using the broth dilution method. Stock solutions of the peptides with a concentration of 10 mg/mL in 10% EtOH/H2O were prepared. Suspensions of the bacteria in the corresponding media were added to 96-well U-shaped bottom polystyrene plates (Deltalab S.L., Spain) and exposed to the peptide in the concentration range from 0 to 320 µg/mL, and a 10% EtOH/H2O control, diluted using the same scheme as the peptides, was also used. The plates were then incubated under aerobic conditions at the corresponding temperature for 24 h. The MIC (µg/mL) was assumed as the lowest concentration of the antimicrobial, where there was visible inhibition of the strain. The absorbance was measured at 630 nm (Microplate reader PKL PPC 142, Paramedical srl, Salerno, Italy). To determine the minimal bactericidal concentration (MBC) and minimal fungicidal concentration (MFC), 10 μL from concentrations greater than or equal to the MIC was placed on the corresponding solid nutrient medium. The Petri dishes were then incubated at 30 or 37 °C for 24 h. All experiments were conducted in a triplicate.

[7] = test system: Candida albicans NBIMCC 74; format: cell-based; conditions: NBIMCC 74, 24 h
Procedure: as §4, §5

[8] = test system: Bacillus subtilis NBIMCC 3562; format: cell-based
Procedure: as §4, §5

[9] = test system: Escherichia coli NBIMCC 8785; format: cell-based; conditions: NBIMCC 8785, 24 h
Procedure: as §4, §5

[10] = test system: Pseudomonas aeruginosa NBIMCC 3700; format: cell-based; conditions: NBIMCC 3700, 24 h
Procedure: as §4, §5

[11] = test system: Arthrobacter oxydans NBIMCC 9333; format: cell-based; conditions: for Inhibition effect, A. oxydans 9333: zone of peptide over zone of antibiotic x 100; for Inhibition zone, A. oxydans 9333: 20 µL per disc, 24 h
Procedure: as §4
(§6) The disk-diffusion method was used as an additional method, with the aim of determining the percent inhibition of the tested samples against the model strains. Sterile plates with LB/NB/MPA/YM agar medium were inoculated on the surface with 100 μL from each microbial culture and incubated at 30 or 37 °C for 30 min, for the suspension to penetrate the agar. After that, sterile paper discs (HiMedia, Mumbai, India) with a diameter of 6 mm were soaked with 20 µL of the peptide solutions with concentrations of 1.4 mg/mL and 10 mg/mL and placed on the agar surface. Sterile paper discs with 10% EtOH/H2O were used as a negative control, and the corresponding strain antibiotic disks (HiMedia, Mumbai, India)—as a positive control. The incubation of the plate was performed at 30/37 °C for 24 h. The antimicrobial activity was analyzed by measuring the diameter of the inhibition zones in mm. The experiments were conducted in triplicates, and the average values for the percent of inhibition as a correlation between the inhibition zone of the peptides over the inhibition zone of the antibiotic multiplied by 100 were calculated.

[12] = test system: Candida albicans NBIMCC 74; format: cell-based; conditions: 20 µL per disc, 24 h
Procedure: as §4, §6

[13] = test system: Bacillus subtilis NBIMCC 3562; format: cell-based; conditions: for Inhibition effect, B. subtilis 3562: zone of peptide over zone of antibiotic x 100; for Inhibition zone, B. subtilis 3562: 20 µL per disc, 24 h
Procedure: as §4, §6

[14] = test system: Escherichia coli NBIMCC 8785; format: cell-based; conditions: 20 µL per disc, 24 h
Procedure: as §4, §6

[15] = test system: Pseudomonas aeruginosa NBIMCC 3700; format: cell-based; conditions: for Inhibition effect, P. aeruginosa 3700: zone of peptide over zone of antibiotic x 100; for Inhibition zone, P. aeruginosa 3700: 20 µL per disc, 24 h
Procedure: as §4, §6

SMILES: CC[C@H](C)[C@H](NC(=O)CNC(=O)[C@H](CO)NC(=O)[C@H](CC(C)C)NC(=O)[C@@H](NC(=O)[C@H](CCCNC(=N)N)NC(=O)CNC(=O)[C@@H](NC(=O)[C@H](CC(C)C)NC(=O)[C@@H]1CCCN1C(=O)[C@H](CC(C)C)NC(=O)[C@@H](N)Cc1ccccc1)[C@@H](C)CC)C(C)C)C(=O)N[C@@H](CC(C)C)C(N)=O [DTA, FLPLIG-R-VLSGIL-NH2, reference compound] (H-FLPLIGRVLSGIL-NH2)
- PIF (photo irritation factor) [1]: 1.01
- CC50 [2]: 106 ± 4.18 µM
- CC50 at 24 h [2]: 105 ± 4.88 µM
- IC50 [3]: 115 ± 4.04 µM
- SI (Selectivity Index), MDA-MB-231 [3]: 1.20
- IC50 [4]: 73.2 ± 3.36 µM
- SI (Selectivity Index), MCF-7 [4]: 1.90
- IC50 [5]: 139 ± 8.36 µM
- MIC, A. oxydans 9333 [6]: 80 µg/mL (≈ 57.3 µM)
- MIC, C. albicans 74 [7]: 320 µg/mL (≈ 229 µM)
- MBC, B. subtilis 3562 ([8]; NBIMCC 3562, 24 h): 320 µg/mL (≈ 229 µM)
- MIC, B. subtilis 3562 ([8]; NBIMCC 3562, 24 h): 80 µg/mL (≈ 57.3 µM)
- MIC, E. coli 8785 [9]: 320 µg/mL (≈ 229 µM)
- MBC, P. aeruginosa 3700 [10]: 320 µg/mL (≈ 229 µM)

SMILES: CC[C@H](C)[C@H](NC(=O)CNC(=O)[C@H](CO)NC(=O)[C@H](CC(C)C)NC(=O)[C@@H](NC(=O)[C@H](CCCN)NC(=O)CNC(=O)[C@@H](NC(=O)[C@H](CC(C)C)NC(=O)[C@@H]1CCCN1C(=O)[C@H](CC(C)C)NC(=O)[C@@H](N)Cc1ccccc1)[C@@H](C)CC)C(C)C)C(=O)N[C@@H](CC(C)C)C(N)=O [DTOrn, FLPLIG-Orn-VLSGIL-NH2] (H-FLPLIG[Orn]VLSGIL-NH2; N-terminus assumed)
- PIF (photo irritation factor) ([1]; PIF = CC50 −Irr/CC50 +Irr, PIF < 2 = not phototoxic): 0.98
- CC50 ([2]; cytotoxicity, no irradiation, BALB 3T3 clone A31, Neutral Red uptake, read-out: Mean CC50 ± SD, −Irr): 337 ± 7.09 µM
- CC50 at 24 h ([2]; phototoxicity, irradiated 2.4 J/cm^2, BALB 3T3 clone A31, Neutral Red uptake, read-out: Mean CC50 ± SD, +Irr): 345 ± 6.41 µM
- IC50 [3]: 303 ± 8.67 µM
- SI (Selectivity Index), MDA-MB-231 [3]: 1.01
- Inhibition effect, A. oxydans 9333 ([11]; 1.4 mg/mL): 0.0%
- Inhibition effect, A. oxydans 9333 ([11]; 10 mg/mL): 43.7%
- Inhibition zone, A. oxydans 9333 ([11]; peptide 1.4 mg/mL): 0.0 mm
- Inhibition zone, A. oxydans 9333 ([11]; peptide 10 mg/mL): 8.3 ± 0.6 mm
- Inhibition zone, C. albicans 74 ([12]; peptide 1.4 mg/mL): 0.0 mm
- Inhibition zone, C. albicans 74 ([12]; peptide 10 mg/mL): 0.0 mm
- Inhibition effect, B. subtilis 3562 ([13]; 1.4 mg/mL): 0.0%
- Inhibition effect, B. subtilis 3562 ([13]; 10 mg/mL): 32.8%
- Inhibition zone, B. subtilis 3562 ([13]; peptide 1.4 mg/mL): 0.0 mm
- Inhibition zone, B. subtilis 3562 ([13]; peptide 10 mg/mL): 8.2 ± 0.3 mm
- Inhibition zone, E. coli 8785 ([14]; peptide 1.4 mg/mL): 0.0 mm
- Inhibition zone, E. coli 8785 ([14]; peptide 10 mg/mL): 0.0 mm
- Inhibition effect, P. aeruginosa 3700 ([15]; 1.4 mg/mL): 0.0%
- Inhibition effect, P. aeruginosa 3700 ([15]; 10 mg/mL): 70.6%
- Inhibition zone, P. aeruginosa 3700 ([15]; peptide 1.4 mg/mL): 0.0 mm
- Inhibition zone, P. aeruginosa 3700 ([15]; peptide 10 mg/mL): 11.3 ± 0.6 mm
- IC50 [4]: 196 ± 3.63 µM
- SI (Selectivity Index), MCF-7 [4]: 1.56
- IC50 [5]: 306 ± 10.8 µM
- MIC, A. oxydans 9333 ([6]; broth dilution, 0 to 320 µg/mL, NI = no inhibition monitored): 160 µg/mL (≈ 118 µM)
- MBC, A. oxydans 9333 ([6]; plated from concentrations ≥ MIC): 160 µg/mL (≈ 118 µM)
- MIC, B. subtilis 3562 ([8]; broth dilution, 0 to 320 µg/mL, 24 h, NI = no inhibition monitored): 160 µg/mL (≈ 118 µM)
- MBC, B. subtilis 3562 ([8]; plated from concentrations ≥ MIC, 24 h): 320 µg/mL (≈ 236 µM)
